Source: US6319915A, “Benzazepine derivatives as inhibitors of hyperproliferation diseases” (Pfizer Inc., priority 2000, dated 2001)

biological target: T1, VEGF/GAG (glycosaminoglycan) (Homo sapiens, UniProt P15692); experiment: in vitro inhibition of VEGF/GAG (glycosaminoglycan) binding ([125I]heparin-16-mer / VEGF165 filter binding); details: purified VEGF165 20 nM, 60 minutes at room temperature, 0.16% DMSO
T1 construct: purchased Repligen, Inc
T1 sequence (P15692 1-191 isoform P15692-4): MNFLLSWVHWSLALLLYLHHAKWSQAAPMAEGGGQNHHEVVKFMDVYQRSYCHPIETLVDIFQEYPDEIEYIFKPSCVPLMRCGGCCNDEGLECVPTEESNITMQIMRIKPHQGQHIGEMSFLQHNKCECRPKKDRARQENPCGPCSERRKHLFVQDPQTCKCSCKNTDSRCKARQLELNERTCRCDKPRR
Method: The in vitro activity of the compounds of formula I in inhibiting VEGF/GAG (glycosaminoglycan) binding may be measured using the assay described in U.S. Pat. No. 5,795,860, the subject matter of which is incorporated herein by reference.
Using mixed cellulose ester 96-well filter plates, 150 μL of Dulbeccos PBS (phosphate buffered saline) containing 10% ovalbumin is added. Compound (5.0 μL) is added at a final concentration of […]. Compounds are dissolved in 8% DMSO (final DMSO concentration is 0.16%) and tested at concentrations of 32, 10, 3.2, 1.0, 0.32 and 0.10 μM. A mixture of [^125 I]heparin-16-mer (4500 cpm per well), purified VEGF165 (20 nM final concentration/well, prepared by Repligen, Inc.) and Dulbeccos PBS with 10% ovalbumin is added to the 96-well plate in a volume of 100 μL. Nonspecific binding is defined using 10 μM heparin-sodium from porcine intestinal mucosa. The assay plate is incubated for 60 minutes at room temperature, filtered using a Millipore filtration apparatus, the plastic bottom plate is removed and the filter plate is allowed to completely dry. The plate bottom is sealed with plastic plate seal and 25 μL of scintillation cocktail is added to each well. The top plate is sealed and is counted for radioactivity on a Microbeta Scintillation Counter. The assay is run in a final volume of 250 μL.

Structure (SMILES) | IC50 [nM]
Cc1ccccc1C1CC(NC(=O)Nc2cccc(C(=O)Nc3nnc(C(F)(F)F)s3)c2)C(=O)N(CC(=O)NC(C)(C)C)C(c2ccccc2)C1 (centres unmarked) [3-{3-[1-(tert-Butylcarbamoyl-methyl)-2-oxo-7-phenyl-5-o-tolyl-azepan-3-yl]-ureido}-N-(5-trifluoromethyl-[1,3,4]thiadiazol-2-yl)-benzamide] | 8600
Cc1ccc2c(c1)N(CC(=O)NC(C)(C)C)C(=O)C(NC(=O)Nc1cccc(C(=O)O)c1)CC2c1ccccc1 (centres unmarked) [3-{3-[1-(tert-Butylcarbamoyl-methyl)-8-methyl-2-oxo-5-phenyl-2,3,4,5-tetrahydro-1H-benzo[b]azepin-3-yl]-ureido}-benzoic acid] | 9800
Cc1ccc2c(c1)N(CC(=O)NC(C)(C)C)C(=O)C(NC(=O)Nc1cccc(-c3nnn[nH]3)c1)CC2C1CCCCC1 (centres unmarked) [N-tert-Butyl-2-(5-cyclohexyl-8-methyl-2-oxo-3-{3-[3-(1H-tetrazol-5-yl)-phenyl]-ureido}-2,3,4,5-tetrahydro-benzo[b]azepin-1-yl)-acetamide] | 4300
Cc1ccccc1C1CC(NC(=O)Nc2cccc(-c3nnn[nH]3)c2)C(=O)N(CC(=O)NC(C)(C)C)C(c2ccccc2)C1 (centres unmarked) [N-tert-Butyl-2-(2-oxo-7-phenyl-3-{3-[3-(1H-tetrazol-5-yl)-phenyl]-ureido}-5-o-tolyl-azepan-1-yl)-acetamide] | 3700
Cc1ccccc1C1CC(NC(=O)Nc2cccc(C(=O)NS(=O)(=O)Cc3ccccc3)c2)C(=O)N(CC(=O)NC(C)(C)C)C(c2ccccc2)C1 (centres unmarked) [N-tert-Butyl-2-{2-oxo-7-phenyl-3-[3-(3-phenylmethanesulfonylaminocarbonyl-phenyl)-ureido]-5-o-tolyl-azepan-1-yl}-acetamide] | 2400
Cc1ccc2c(c1)N(CC(=O)NC(C)(C)C)C(=O)C(NC(=O)Nc1cccc(C(=O)NS(C)(=O)=O)c1)CC2c1ccccc1 (centres unmarked) [N-tert-Butyl-2-{3-[3-(3-methanesulfonylaminocarbonyl-phenyl)-ureido]-8-methyl-2-oxo-5-phenyl-2,3,4,5-tetrahydro-benzo[b]azepin-1-yl}-acetamide] | 11000
COc1ccccc1C1CC(NC(=O)Nc2cccc(C(=O)NS(C)(=O)=O)c2)C(=O)N(CC(=O)NC(C)(C)C)C(c2ccccc2)C1 (centres unmarked) [N-tert-Butyl-2-[3-[3-(3-methanesulfonylaminocarbonyl-phenyl)-ureido]-5-(2-methoxy-phenyl)-2-oxo-7-phenyl-azepan-1-yl]-acetamide] | 5800
CC1(C)CN(C(=O)CN2C(=O)C(NC(=O)Nc3cccc(-c4nnn[nH]4)c3)COc3cc(F)ccc32)CC(C)(C)C1 (centres unmarked) [1-{3-Fluoro-8-oxo-9-[2-oxo-2-(3,3,5,5-tetramethyl-piperidin-1-yl)-ethyl]-6,7,8,9-tetrahydro-5-oxa-9-aza-benzocyclohepten-7-yl}-3-[3-(1H-tetrazol-5-yl)-phenyl]-urea] | 3700
COc1ccccc1C1CC(NC(=O)Nc2cccc(C(=O)O)c2)C(=O)N(CC(=O)NC(C)(C)C)C(c2ccccc2)C1 (centres unmarked) [3-{3-[1-(tert-Butylcarbamoyl-methyl)-5-(2-methoxy-phenyl)-2-oxo-7-phenyl-azepan-3-yl]-ureido}-benzoic acid] | 4300
Cc1ccccc1C1CC(NC(=O)Nc2cccc(C(=O)Nc3nnn[nH]3)c2)C(=O)N(CC(=O)NC2(C)CCCCC2)C(c2ccccc2)C1 (centres unmarked) [3-(3-{1-[(1-Methyl-cyclohexylcarbamoyl)-methyl]-2-oxo-7-phenyl-5-o-tolyl-azepan-3-yl}-ureido)-N-(1H-tetrazol-5-yl)-benzamide] | 2300
Cc1ccccc1C1CC(NC(=O)Nc2cccc(C(=O)O)c2)C(=O)N(CC(=O)NC(C)(C)C)C(c2ccccc2)C1 (centres unmarked) [3-{3-[1-(tert-Butylcarbamoyl-methyl)-2-oxo-7-phenyl-5-o-tolyl-azepan-3-yl]-ureido}-benzoic acid] | 20000
COc1ccccc1C1CC(NC(=O)Nc2cccc(C(=O)NS(C)(=O)=O)c2)C(=O)N(CC(=O)NC2(C)CCCCC2)C(c2ccccc2)C1 (centres unmarked) [2-[3-[3-(3-Methanesulfonylaminocarbonyl-phenyl)-ureido]-5-(2-methoxy-phenyl)-2-oxo-7-phenyl-azepan-1-yl]-N-(1-methyl-cyclohexyl)-acetamide] | 3000
CC1(C)CN(C(=O)CN2C(=O)C(NC(=O)Nc3cccc(-c4nnn[nH]4)c3)CSc3ccccc32)CC(C)(C)C1 (centres unmarked) [1-{4-Oxo-5-[2-oxo-2-(3,3,5,5-tetramethyl-piperidin-1-yl)-ethyl]-2,3,4,5-tetrahydro-benzo[b][1,4]thiazepin-3-yl}-3-[3-(1H-tetrazol-5-yl)-phenyl]-urea] | 6700
Cc1cccc(NC(=O)NC2CC(c3ccccc3C)CC(c3ccccc3)N(CC(=O)O)C2=O)c1 (centres unmarked) [[2-Oxo-7-phenyl-5-o-tolyl-3-(3-m-tolyl-ureido)-azepan-1-yl]-acetic acid] | 2400

The next molecules have a lower IC50 than those just listed; values first:

IC50 [nM] | Structure (SMILES)
2000 | Cc1ccccc1C1CC(NC(=O)Nc2cccc(-c3nnn[nH]3)c2)C(=O)N(CC(=O)NC2(C)CCCCC2)C(c2ccccc2)C1 (centres unmarked) [N-(1-Methyl-cyclohexyl)-2-(2-oxo-7-phenyl-3-{3-[3-(1H-tetrazol-5-yl)-phenyl]-ureido}-5-o-tolyl-azepan-1-yl)-acetamide]
1900 | COc1ccccc1C1CC(NC(=O)Nc2cccc(-c3nnn[nH]3)c2)C(=O)N(CC(=O)NC2(C)CCCCC2)C(c2ccccc2)C1 (centres unmarked) [2-(5-(2-Methoxy-phenyl)-2-oxo-7-phenyl-3-{3-[3-(1H-tetrazol-5-yl)-phenyl]-ureido}-azepan-1-yl)-N-(1-methyl-cyclohexyl)-acetamide]
1700 | CC1(C)CCCC(C)(C)N1C(=O)CN1C(=O)C(NC(=O)Nc2cccc(-c3nnn[nH]3)c2)COc2cc(F)ccc21 (centres unmarked) [1-{3-Fluoro-8-oxo-9-[2-oxo-2-(2,2,6,6-tetramethyl-piperidin-1-yl)-ethyl]-6,7,8,9-tetrahydro-5-oxa-9-aza-benzocyclohepten-7-yl}-3-[3-(1H-tetrazol-5-yl)-phenyl]-urea]
1700 | Cc1ccccc1C1CC(NC(=O)Nc2cccc(C(=O)NS(=O)(=O)C(F)(F)F)c2)C(=O)N(CC(=O)NC2(C)CCCCC2)C(c2ccccc2)C1 (centres unmarked) [N-(1-Methyl-cyclohexyl)-2-{2-oxo-7-phenyl-5-o-tolyl-3-[3-(3-trifluoromethanesulfonylaminocarbonyl-phenyl)-ureido]-azepan-1-yl}-acetamide]
1700 | COc1ccccc1C1CC(NC(=O)Nc2cccc(C(=O)Nc3nnn[nH]3)c2)C(=O)N(CC(=O)NC(C)(C)C)C(c2ccccc2)C1 (centres unmarked) [3-{3-[1-(tert-Butylcarbamoyl-methyl)-5-(2-methoxy-phenyl)-2-oxo-7-phenyl-azepan-3-yl]-ureido}-N-(1H-tetrazol-5-yl)-benzamide]
1600 | Cc1ccccc1C1CC(NC(=O)Nc2ccc3[nH]nnc3c2)C(=O)N(CC(=O)NC(C)(C)C)C(c2ccccc2)C1 (centres unmarked) [2-{3-[3-(1H-Benzotriazol-5-yl)-ureido]-2-oxo-7-phenyl-5-o-tolyl-azepan-1-yl}-N-tert-butyl-acetamide]
1400 | Cc1ccccc1C1CC(NC(=O)Nc2cccc(C(=O)NS(=O)(=O)c3ccccc3)c2)C(=O)N(CC(=O)NC(C)(C)C)C(c2ccccc2)C1 (centres unmarked) [2-{3-[3-(3-Benzenesulfonylaminocarbonyl-phenyl)-ureido]-2-oxo-7-phenyl-5-o-tolyl-azepan-1-yl}-N-tert-butyl-acetamide]
900 | COc1ccccc1C1CC(NC(=O)Nc2cccc(C(=O)Nc3nnn[nH]3)c2)C(=O)N(CC(=O)NC2(C)CCCCC2)C(c2ccccc2)C1 (centres unmarked) [3-(3-{5-(2-Methoxy-phenyl)-1-[(1-methyl-cyclohexylcarbamoyl)-methyl]-2-oxo-7-phenyl-azepan-3-yl}-ureido)-N-(1H-tetrazol-5-yl)-benzamide]
700 | COc1ccccc1C1CC(NC(=O)Nc2cccc(-c3nnn[nH]3)c2)C(=O)N(CC(=O)NC(C)(C)C)C(c2ccccc2)C1 (centres unmarked) [N-tert-Butyl-2-(5-(2-methoxy-phenyl)-2-oxo-7-phenyl-3-{3-[3-(1H-tetrazol-5-yl)-phenyl]-ureido}-azepan-1-yl)-acetamide]
